Data from patent US20240317791A1 (priority 2021, published 2024).
Values after ≈ are worked out from the molar mass of the structure shown. Read-outs that look alike come from different tables or passages of the source. Numbered stars: 1 amine (or outer) side, 2 acyl side, 3 side chain; on linkers, the order of the positions; unused ones are H or OH. Bridge positions count the residues as written; N and C are the ends. Square brackets hold non-standard residues; d marks the D form. Peptide text beside a SMILES is read from it. * marks the point of attachment. hTyr(3S-OH,4S-OH,3'-OSO3H) = N[C@H](C(=O)O)[C@H](O)[C@@H](O)c1ccc(O)c(OS(=O)(=O)O)c1; Orn(4R-OH,5R-OH) = O=C([C@H](C[C@@H](O)[C@@H](O)N[*:3])N[*:1])[*:2]; Pro(3S-OH,4S-Me) = C[C@H]1CN[C@H](C(=O)O)[C@H]1O; X1 = CCCCCOc1ccc(-c2cc(-c3ccc(C(=O)*)cc3)no2)cc1; Gln(3R-OH) = NC(=O)C[C@@H](O)[C@H](N)C(=O)O; Hyp = O=C(O)[C@@H]1C[C@@H](O)CN1

What was measured:
Assay type in all cases: cell-based
Candida auris = assay: MIC determination against clinical isolates of Candida auris (CLSI M27, 4th edition); conditions: Candidozyma auris
Excerpt: (§1) MIC: Minimum Inhibitory Concentration (MIC) is defined as the lowest concentration of an antimicrobial ingredient that is bacteriostatic.
(§2) Testing has been performed in triplicates for each isolate.

Rhizopus oryzae = assay: MIC determination against clinical isolates of the order Mucorales (CLSI M27, 4th edition); conditions: Rhizopus arrhizus, strain 2086, clinical strain
Excerpt: as §1, §2

Rhizopus microsporus = assay: as above; conditions: strain 3435, clinical strain
Excerpt: as §1, §2

Mucor circinelloides = assay: MIC determination against ATCC and clinical isolates of the order Mucorales (CLSI M27, 4th edition)
Excerpt: as §1, §2

**Q.** With CCCCCOc1ccc(-c2cc(-c3ccc(C(=O)N[C@H]4C[C@@H](O)[C@@H](O)NC(=O)[C@@H]5[C@@H](O)[C@@H](C)CN5C(=O)[C@H]([C@H](O)CC(N)=O)NC(=O)[C@H]([C@H](O)[C@@H](O)c5ccc(O)c(OS(=O)(=O)O)c5)NC(=O)[C@@H]5C[C@@H](O)CN5C(=O)[C@H]([C@@H](C)O)NC4=O)cc3)no2)cc1 [Micafungin] (X1-[Orn(4R-OH,5R-OH)]T[Hyp][hTyr(3S-OH,4S-OH,3'-OSO3H)][Gln(3R-OH)][Pro(3S-OH,4S-Me)]; lactam 1-C) as the compound, how does the MIC (Candida auris; read-out: MIC values, strain I.2 (No 2), clade I/India) read?
**A.** The MIC was 0.125 µg/mL (≈ 0.0984 µM).

**Q.** And the MIC (Candida auris; read-out: MIC values, strain I.3 (No 3), clade I/India)?
**A.** The MIC was over 1020 µg/mL.

**Q.** And the MIC (Candida auris; read-out: MIC values, strain I.4 (No 4), clade I/India)?
**A.** The MIC was 0.125 µg/mL (≈ 0.0984 µM).

**Q.** What about the MIC (Candida auris; read-out: MIC values, strain II.1 (No 5), clade II/Japan) of the same compound?
**A.** Its MIC is 0.125 µg/mL (≈ 0.0984 µM).

**Q.** And the MIC (Candida auris; read-out: MIC values, strain II.2 (No 1), clade II/India)?
**A.** Its MIC is 0.125 µg/mL (≈ 0.0984 µM).

**Q.** And the MIC (Candida auris; read-out: MIC values, strain III.7 (No 12), clade III/Switzerland)?
**A.** Its MIC is 0.25 µg/mL (≈ 0.197 µM).

**Q.** What about the MIC (Candida auris; read-out: MIC values, strain III.8 (No 13), clade III/Israel) of the same compound?
**A.** Its MIC is 0.25 µg/mL (≈ 0.197 µM).

**Q.** And the MIC (Candida auris; read-out: MIC values, strain III.9 (No 14), clade III/Israel)?
**A.** The MIC was 0.25 µg/mL (≈ 0.197 µM).

**Q.** What about the MIC (Candida auris; read-out: MIC values, strain IV.1 (No 15), clade IV/Colombia) of the same compound?
**A.** Its MIC is 0.125 µg/mL (≈ 0.0984 µM).

**Q.** What about the MIC (Candida auris; read-out: MIC values, strain IV.10 (No 7), clade IV/Israel) of the same compound?
**A.** The MIC was 0.25 µg/mL (≈ 0.197 µM).

**Q.** What about the MIC (Candida auris; read-out: MIC values, strain IV.11 (No 8), clade IV/Israel) of the same compound?
**A.** Its MIC is 0.25 µg/mL (≈ 0.197 µM).

**Q.** And the MIC (Candida auris; read-out: MIC values, strain IV.12 (No 9), clade IV/Israel)?
**A.** The MIC was 0.25 µg/mL (≈ 0.197 µM).

**Q.** What about the MIC (Candida auris; read-out: MIC values, strain IV.13 (No 10), clade IV/Israel) of the same compound?
**A.** Its MIC is 0.25 µg/mL (≈ 0.197 µM).

**Q.** And the MIC (Candida auris; read-out: MIC values, strain IV.14 (No 11), clade IV/Israel)?
**A.** Its MIC is 0.5 µg/mL (≈ 0.394 µM).

**Q.** What about the MIC (Candida auris; read-out: MIC values, strain IV.2 (No 16), clade IV/Colombia) of the same compound?
**A.** The MIC was 0.125 µg/mL (≈ 0.0984 µM).

**Q.** And the MIC (Candida auris; read-out: MIC values, strain IV.3 (No 17), clade IV/Colombia)?
**A.** Its MIC is 0.125 µg/mL (≈ 0.0984 µM).

**Q.** What about the MIC (Candida auris; read-out: MIC values, strain IV.4 (No 18), clade IV/Colombia) of the same compound?
**A.** The MIC was 0.125 µg/mL (≈ 0.0984 µM).

**Q.** What about the MIC (Candida auris; read-out: MIC values, strain IV.5 (No 19), clade IV/Colombia) of the same compound?
**A.** The MIC was 0.125 µg/mL (≈ 0.0984 µM).

**Q.** And the MIC (Candida auris; read-out: MIC values, strain IV.6 (No 20), clade IV/Colombia)?
**A.** The MIC was 0.125 µg/mL (≈ 0.0984 µM).

**Q.** And the MIC (Candida auris; read-out: MIC values, strain IV.7 (No 21), clade IV/Colombia)?
**A.** The MIC was 0.25 µg/mL (≈ 0.197 µM).

**Q.** What about the MIC (Candida auris; read-out: MIC values, strain IV.8 (No 22), clade IV/Colombia) of the same compound?
**A.** The MIC was 0.25 µg/mL (≈ 0.197 µM).

**Q.** And the MIC (Candida auris; read-out: MIC values, strain IV.9 (No 6), clade IV/Israel)?
**A.** The MIC was 0.25 µg/mL (≈ 0.197 µM).

**Q.** Which results are given for CC[C@@H]([C@H](C)O)n1ncn(-c2ccc(N3CCN(c4ccc(OC[C@@H]5CO[C@@](Cn6cncn6)(c6ccc(F)cc6F)C5)cc4)CC3)cc2)c1=O [Posaconazole]?
**A.** MIC (Rhizopus oryzae): 0.25 µg/mL (≈ 0.357 µM); MIC (Rhizopus microsporus): 0.5 µg/mL (≈ 0.713 µM); MIC (Mucor circinelloides; ATCC24905, strain ATCC 24905, ATCC strain): 1 µg/mL (≈ 1.43 µM); MIC (Mucor circinelloides; strain 2109, clinical strain): 0.5 µg/mL (≈ 0.713 µM); MIC (Mucor circinelloides; strain 2707, clinical strain): 0.5 µg/mL (≈ 0.713 µM); MIC (Mucor circinelloides; strain 4280, clinical strain): 1 µg/mL (≈ 1.43 µM)

**Q.** With C[C@@H](c1ncncc1F)[C@](O)(Cn1cncn1)c1ccc(F)cc1F [Voriconazole] as the compound, how does the MIC (Candida auris; strain I.2 (No 2), clade I/India, read-out: MIC values) read?
**A.** Its MIC is 1 µg/mL (≈ 2.86 µM).

**Q.** And the MIC (Candida auris; strain I.3 (No 3), clade I/India, read-out: MIC values)?
**A.** Its MIC is 2 µg/mL (≈ 5.73 µM).

**Q.** What about the MIC (Candida auris; strain I.4 (No 4), clade I/India, read-out: MIC values) of the same compound?
**A.** The MIC was 1 µg/mL (≈ 2.86 µM).

**Q.** What about the MIC (Candida auris; strain II.1 (No 5), clade II/Japan, read-out: MIC values) of the same compound?
**A.** Its MIC is 0.0625 µg/mL (≈ 0.179 µM).

**Q.** And the MIC (Candida auris; strain II.2 (No 1), clade II/India, read-out: MIC values)?
**A.** Its MIC is 1 µg/mL (≈ 2.86 µM).

**Q.** What about the MIC (Candida auris; strain III.7 (No 12), clade III/Switzerland, read-out: MIC values) of the same compound?
**A.** The MIC was 2 µg/mL (≈ 5.73 µM).

**Q.** What about the MIC (Candida auris; strain III.8 (No 13), clade III/Israel, read-out: MIC values) of the same compound?
**A.** Its MIC is 2 µg/mL (≈ 5.73 µM).

**Q.** And the MIC (Candida auris; strain III.9 (No 14), clade III/Israel, read-out: MIC values)?
**A.** Its MIC is 2 µg/mL (≈ 5.73 µM).

**Q.** And the MIC (Candida auris; strain IV.1 (No 15), clade IV/Colombia, read-out: MIC values)?
**A.** Its MIC is 0.0625 µg/mL (≈ 0.179 µM).

**Q.** What about the MIC (Candida auris; strain IV.10 (No 7), clade IV/Israel, read-out: MIC values) of the same compound?
**A.** Its MIC is 0.5 µg/mL (≈ 1.43 µM).

**Q.** And the MIC (Candida auris; strain IV.11 (No 8), clade IV/Israel, read-out: MIC values)?
**A.** The MIC was 0.5 µg/mL (≈ 1.43 µM).

**Q.** And the MIC (Candida auris; strain IV.12 (No 9), clade IV/Israel, read-out: MIC values)?
**A.** The MIC was 1 µg/mL (≈ 2.86 µM).

**Q.** What about the MIC (Candida auris; strain IV.13 (No 10), clade IV/Israel, read-out: MIC values) of the same compound?
**A.** The MIC was 0.5 µg/mL (≈ 1.43 µM).

**Q.** What about the MIC (Candida auris; strain IV.14 (No 11), clade IV/Israel, read-out: MIC values) of the same compound?
**A.** The MIC was 1 µg/mL (≈ 2.86 µM).

**Q.** And the MIC (Candida auris; strain IV.2 (No 16), clade IV/Colombia, read-out: MIC values)?
**A.** The MIC was 1 µg/mL (≈ 2.86 µM).

**Q.** What about the MIC (Candida auris; strain IV.3 (No 17), clade IV/Colombia, read-out: MIC values) of the same compound?
**A.** The MIC was 1 µg/mL (≈ 2.86 µM).

**Q.** And the MIC (Candida auris; strain IV.4 (No 18), clade IV/Colombia, read-out: MIC values)?
**A.** The MIC was 0.5 µg/mL (≈ 1.43 µM).

**Q.** And the MIC (Candida auris; strain IV.5 (No 19), clade IV/Colombia, read-out: MIC values)?
**A.** The MIC was 0.5 µg/mL (≈ 1.43 µM).

**Q.** What about the MIC (Candida auris; strain IV.6 (No 20), clade IV/Colombia, read-out: MIC values) of the same compound?
**A.** The MIC was 0.5 µg/mL (≈ 1.43 µM).

**Q.** What about the MIC (Candida auris; strain IV.7 (No 21), clade IV/Colombia, read-out: MIC values) of the same compound?
**A.** Its MIC is 8 µg/mL (≈ 22.9 µM).

**Q.** And the MIC (Candida auris; strain IV.8 (No 22), clade IV/Colombia, read-out: MIC values)?
**A.** Its MIC is 8 µg/mL (≈ 22.9 µM).

**Q.** What about the MIC (Candida auris; strain IV.9 (No 6), clade IV/Israel, read-out: MIC values) of the same compound?
**A.** The MIC was 1 µg/mL (≈ 2.86 µM).
